Tests used:
Type in all cases: cell-based
HCT-116 = assay: in vitro cytotoxicity evaluation, Colon Cancer; details: Homo sapiens, 48 h, HCT-116, two days, sulforhodamine B
Procedure: (§1) These assays were carried out at the Developmental Therapeutics Program, Division of Cancer Treatment, National Cancer Institute (Bethesda, Md., USA). The method consists of incubating varying concentrations of the drug with an inoculum of cells for two days.
(§2) It should be noted that the first two parameters (GI50 and TGI) relate to antiproliferation effects while the third one (LC50) indicates true cytotoxicity.

HCT-15 = assay: in vitro cytotoxicity evaluation, Colon Cancer; details: Homo sapiens, 48 h, HCT-15, two days, sulforhodamine B
Procedure: as §1, §2

HT 29 = assay: in vitro cytotoxicity evaluation, Colon Cancer; details: Homo sapiens, 48 h, HT 29, two days, sulforhodamine B
Procedure: as §1, §2

KM 12 = assay: in vitro cytotoxicity evaluation, Colon Cancer; details: Homo sapiens, KM12, 48 h, KM 12, two days, sulforhodamine B
Procedure: as §1, §2

MK20L2 = assay: in vitro cytotoxicity evaluation, Colon Cancer; details: Homo sapiens, 48 h, MK20L2, two days, sulforhodamine B
Procedure: as §1, §2

SW-620 = assay: in vitro cytotoxicity evaluation, Colon Cancer; details: Homo sapiens, 48 h, SW-620, two days, sulforhodamine B
Procedure: as §1, §2

LOX IMVI = assay: in vitro cytotoxicity evaluation, Melanoma; details: Homo sapiens, 48 h, two days, sulforhodamine B
Procedure: as §1, §2

M14 = assay: in vitro cytotoxicity evaluation, Melanoma; details: Homo sapiens, 48 h, M14, two days, sulforhodamine B
Procedure: as §1, §2

M19-MEL = assay: in vitro cytotoxicity evaluation, Melanoma; details: Homo sapiens, 48 h, two days, sulforhodamine B
Procedure: as §1, §2

MALME-3M = assay: in vitro cytotoxicity evaluation, Melanoma; details: Homo sapiens, 48 h, two days, sulforhodamine B
Procedure: as §1, §2

SK-MEL-28 = assay: in vitro cytotoxicity evaluation, Melanoma; details: Homo sapiens, 48 h, SK-MEL-28, two days, sulforhodamine B
Procedure: as §1, §2

SK-MEL-2 = assay: in vitro cytotoxicity evaluation, Melanoma; details: Homo sapiens, 48 h, SK-MEL-2, two days, sulforhodamine B
Procedure: as §1, §2

SK-MEL-5 = assay: in vitro cytotoxicity evaluation, Melanoma; details: Homo sapiens, 48 h, SK-MEL-5, two days, sulforhodamine B
Procedure: as §1, §2

UACC-257 = assay: in vitro cytotoxicity evaluation, Melanoma; details: Homo sapiens, 48 h, UACC-257, two days, sulforhodamine B
Procedure: as §1, §2

UACC-62 = assay: in vitro cytotoxicity evaluation, Melanoma; details: Homo sapiens, 48 h, UACC-62, two days, sulforhodamine B
Procedure: as §1, §2

[1] = read-out: LOG10 G150 (GI50) (converted)
[2] = read-out: Log10 LC50 (converted)
[3] = read-out: Log10 TGI (converted)

SMILES: COc1c2c(c(OC)c3c(=O)c4ccccc4sc13)CS(=O)(=O)[C@@H]2O[C@H]1C[C@H](N)[C@H](O)[C@H](C)O1 [BCH-255, (1S ) 1-daunosamine-4-11-dimethoxy-5-oxo-5-H-1,3-dihydrothioxantheno [2,3-c] thiophene-2,2-dioxide]
- GI50 (HCT-116; [1]): 20.4 µM
- CC50 (HCT-116; [2]): 75.9 µM
- IC (total growth inhibition (TGI)) (HCT-116; [3]): 39.8 µM
- GI50 (HCT-15; [1]): 19.1 µM
- CC50 (HCT-15; [2]): 95.5 µM
- IC (total growth inhibition (TGI)) (HCT-15; [3]): 42.7 µM
- GI50 (HT 29; [1]): 17.8 µM
- CC50 (HT 29; [2]): 61.7 µM
- IC (total growth inhibition (TGI)) (HT 29; [3]): 33.1 µM
- GI50 (KM 12; [1]): 18.2 µM
- CC50 (KM 12; [2]): 87.1 µM
- IC (total growth inhibition (TGI)) (KM 12; [3]): 39.8 µM
- GI50 (MK20L2; [1]): 17 µM
- CC50 (MK20L2; [2]): 57.5 µM
- IC (total growth inhibition (TGI)) (MK20L2; [3]): 30.9 µM
- GI50 (SW-620; [1]): 20.4 µM
- CC50 (SW-620; [2]): 67.6 µM
- IC (total growth inhibition (TGI)) (SW-620; [3]): 37.2 µM
- GI50 (LOX IMVI; [1]): 17.8 µM
- CC50 (LOX IMVI; [2]): 81.3 µM
- IC (total growth inhibition (TGI)) (LOX IMVI; [3]): 38 µM
- GI50 (M14; [1]): 18.2 µM
- CC50 (M14; [2]): 60.3 µM
- IC (total growth inhibition (TGI)) (M14; [3]): 33.1 µM
- GI50 (M19-MEL; [1]): 18.2 µM
- CC50 (M19-MEL; [2]): 67.6 µM
- IC (total growth inhibition (TGI)) (M19-MEL; [3]): 34.7 µM
- GI50 (MALME-3M; [1]): 20 µM
- CC50 (MALME-3M; [2]): 67.6 µM
- IC (total growth inhibition (TGI)) (MALME-3M; [3]): 36.3 µM
- GI50 (SK-MEL-28; [1]): 18.2 µM
- CC50 (SK-MEL-28; [2]): 67.6 µM
- IC (total growth inhibition (TGI)) (SK-MEL-28; [3]): 34.7 µM
- GI50 (SK-MEL-2; [1]): 19.1 µM
- CC50 (SK-MEL-2; [2]): 70.8 µM
- IC (total growth inhibition (TGI)) (SK-MEL-2; [3]): 36.3 µM
- GI50 (SK-MEL-5; [1]): 18.2 µM
- CC50 (SK-MEL-5; [2]): 57.5 µM
- IC (total growth inhibition (TGI)) (SK-MEL-5; [3]): 32.4 µM
- GI50 (UACC-257; [1]): 22.4 µM
- CC50 (UACC-257; [2]): 85.1 µM
- IC (total growth inhibition (TGI)) (UACC-257; read-out: Log10 TGI): 43.7 µM
- GI50 (UACC-62; [1]): 19.1 µM
- CC50 (UACC-62; [2]): 74.1 µM
- IC (total growth inhibition (TGI)) (UACC-62; [3]): 37.2 µM
